According to patent publication US9815851B2, “Pyrrolo carboxamides as modulators of orphan nuclear receptor RAR-related orphan receptor-gamma (RORγ, NR1F3) activity and for the treatment of chronic inflammatory and autoimmune diseases” (PHENEX PHARMACEUTICALS AG, priority 2011, dated 2017):
Where two headings read alike, the source gives them in different places.

Tests used:
[1] = biological target: T1, RORγ (UniProt P51449); assay: RORγ Gal4 Reporter Gene Assay in 293T cells (firefly and renilla luciferase); assay type: cell-based, human
T1 sequence (P51449 1-518): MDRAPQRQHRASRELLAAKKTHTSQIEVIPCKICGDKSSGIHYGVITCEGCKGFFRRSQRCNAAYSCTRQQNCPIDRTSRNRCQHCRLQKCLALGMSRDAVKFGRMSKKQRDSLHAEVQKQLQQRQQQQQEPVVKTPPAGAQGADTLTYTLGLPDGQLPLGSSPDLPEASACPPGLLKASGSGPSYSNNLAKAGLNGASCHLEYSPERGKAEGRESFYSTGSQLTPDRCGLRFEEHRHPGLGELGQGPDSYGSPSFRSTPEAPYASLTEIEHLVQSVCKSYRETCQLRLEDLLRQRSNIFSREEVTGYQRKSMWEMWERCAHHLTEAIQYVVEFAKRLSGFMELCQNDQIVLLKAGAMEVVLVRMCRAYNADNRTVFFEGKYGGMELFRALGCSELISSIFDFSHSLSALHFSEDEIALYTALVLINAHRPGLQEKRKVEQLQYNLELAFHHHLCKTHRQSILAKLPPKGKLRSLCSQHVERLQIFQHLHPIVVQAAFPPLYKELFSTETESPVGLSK

[2] = biological target: T2, RORγ ligand binding domain (LBD) (Homo sapiens, UniProt P51449); assay: TR-FRET Activity Assay (ligand sensing, RORγ-LBD / coactivator peptide interaction, LANCE); assay type: biochemical
T2 construct: made in house; host or cells: E. coli BL-21 (BL3), vector pDEST15
T2 sequence (P51449 269-508 limits assumed): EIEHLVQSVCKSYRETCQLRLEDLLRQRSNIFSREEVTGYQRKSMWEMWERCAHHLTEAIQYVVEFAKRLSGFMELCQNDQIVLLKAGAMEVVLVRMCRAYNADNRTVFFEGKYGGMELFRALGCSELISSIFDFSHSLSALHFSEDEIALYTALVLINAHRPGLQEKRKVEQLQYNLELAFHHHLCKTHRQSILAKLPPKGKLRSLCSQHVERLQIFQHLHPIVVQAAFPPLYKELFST

[3] = second value of the cell, Gal4 reporter gene assay in 293T cells, firefly luciferase
[4] = third value of the cell, Gal4 reporter gene assay in 293T cells, renilla normalised luciferase
[5] = first value of the cell FRET/FF/REN, TR-FRET activity assay, read-out: pIC50 (FRET) (converted)

Row | Compound | pIC50 (FF) [1, 3] | pIC50 (REN) [1, 4] | IC50 [2, 5] | pIC50 (FF) [1] | pIC50 (REN) [1] | IC50 [2]
1 | Cc1c(C(=O)NCC(C)(C)O)cc(-c2cc(C(C)(C)C)cc(C(=O)NC(C)(C)C)c2Cl)n1CC1CCCCC1 [17/367] | 6.4 | 6.1 | 5010 nM |  |  | 
2 | CC(C)(C)NS(=O)(=O)c1ccc(-c2cc(C(=O)NC3CCOCC3)c(CF)n2CC2CCCCC2)cc1C(C)(C)C [17/118] | 6.3 | 6.5 | 10000 nM |  |  | 
3 | Cc1c(C(=O)NC2CCOCC2)cc(-c2ccc(S(=O)(=O)NC(C)(C)C)c(OC(F)F)c2)n1CC1CCCCC1 [17/106] | 7.3 | 7.3 | 501 nM |  |  | 
4 | Cc1c(C(=O)N[C@H]2C[C@](C)(C(=O)O)C2)cc(-c2ccc(S(=O)(=O)NC(C)(C)C)c(C(F)F)c2)n1CC1CCCCC1 [17/170] | 6.8 | 7.0 | 316 nM |  |  | 
5 | Cc1noc2ccc(-c3cc(C(N)=O)c(C)n3CC3CCCCC3)cc12 [1/49] | 6.2 | 6.6 | 31600 nM |  |  | 
6 | Cc1c(C(=O)NCC2CCOCC2)cc(-c2ccc(S(=O)(=O)NC(C)(C)C)c(C(C)(C)C)c2)n1CC1CCCCC1 [1/10] |  |  |  | 6.3/7.5/7.5 | 6.3/7.5/7.5 | 501 nM
7 | Cc1c(C(=O)NC2COC2)cc(-c2cc(C(C)(C)C)cc(C(C)(C)C)c2)n1S(=O)(=O)N1CCC2(CCCC2)C1 [7/6] | 6.6 | 6.5 | 398 nM |  |  | 
8 | Cc1c(C(=O)NCC(C)(C)C(=O)O)cc(-c2cc(C(C)(C)C)nc(C(C)(C)C)n2)n1CC1CCCCC1 [17/353] | 6.8 | 6.8 | 2000 nM |  |  | 
9 | Cc1c(C(=O)N[C@H]2C[C@H](C(=O)O)C2)cc(-c2ccc(S(=O)(=O)NC(C)(C)C)c(C(C)(C)C)c2)n1CC1CCCCC1 [17/221] | 7.1 | 7.1 | 2000 nM |  |  | 
10 | Cc1c(C(=O)NC2CCOCC2)cc(-c2ccc(S(=O)(=O)NC(C)(C)C)c(C(F)(F)F)c2)n1CC1CC(C)C1 (stereo not drawn) [17/177] | 7.3 | 7.4 | 158 nM |  |  | 
11 | Cc1c(C(=O)N[C@H]2C[C@H](C(=O)O)C2)c(Cl)c(-c2cc(C(C)(C)C)cc(C3(C)CC3)c2)n1CC1CCCCC1 [Example 29, (trans)-3-(5-(3-(tert-Butyl)-5-(1-methylcyclopropyl)phenyl)-4-chloro-1-(cyclohexylmethyl)-2-methyl-1H-pyrrole-3-carboxamido)cyclobutanecarboxylic acid] | 7.2 | 7.2 | 3980 nM |  |  | 
12 | Cc1c(C(=O)N(C)CC2(CO)COC2)cc(-c2cc(C(C)(C)C)cc(C3(C)CC3)c2)n1CC1CCCCC1 [17/78] |  |  |  | 6.3/7.3/7.3 | 6.3/7.3/7.3 | 501 nM
13 | Cc1c(C(=O)NCC2(CCO)COC2)cc(-c2cc(C(C)(C)C)cc(C(C)(C)C)c2)n1CC1CCCCC1 [17/44] |  |  |  | 6.2/6.1/6.1 | 6.2/6.1/6.1 | 631 nM
14 | Cc1c(S(=O)(=O)NC(C)(C)C)ccc(-c2cc(C(=O)NCCC(C)(C)C(=O)O)c(C)n2CC2CCCCC2)c1OC(F)F [17/284] | 7.3 | 7.3 | 1260 nM |  |  | 
15 | Cc1c(C(=O)NCC(F)(F)F)cc(-c2cc(C(C)(C)C)c(O)c(C(C)(C)C)c2)n1CC1CCCCC1 [1/48] | 6.4 | 6.4 | 631 nM |  |  | 
16 | Cc1c(C(=O)NC2COC2)cc(-c2ccc(S(=O)(=O)N(C)C(C)(C)C)c(C(C)(C)C)c2)n1CC1CCCCC1 [9/5] | 7.2 | 7.2 | 316 nM |  |  | 
17 | Cc1c(C(=O)NC2CCOCC2)cc(-c2ccc(-c3ccnn3C(C)C)c(C(F)(F)F)c2)n1CC1CCCCC1 [17/249] | 6.6 | 6.7 | 501 nM |  |  | 
18 | Cc1c(C(=O)NCCN2CCN(C)CC2)cc(-c2cc(C(C)(C)C)cc(C3(C)CC3)c2)n1CC1CCCCC1 [17/346] |  |  |  | 5.3/<4.7/<4.7 | 5.3/<4.7/<4.7 | 5010 nM
19 | Cc1c(C(=O)NC2CCOCC2)cc(-c2ccc(-c3cnc(NC(C)C)nc3)c(C(C)(C)C)c2)n1CC1CCCCC1 [26/4] | 6.6 | 6.8 | 3980 nM |  |  | 
20 | Cc1c(C(=O)NC2CCOCC2)cc(-c2ccc(S(=O)(=O)NC(C)(C)C)c(C(F)(F)F)c2)n1[C@H](C)C1CCCCC1 [17/254] | 6.6 | 6.6 | 631 nM |  |  | 

Row | Compound | pIC50 (FF) [1, 3] | pIC50 (REN) [1, 4] | IC50 [2, 5] | pIC50 (FF) [1] | pIC50 (REN) [1] | IC50 [2]
21 | Cc1c(C(=O)NCC2(C(=O)NCCCO)CCOCC2)cc(-c2cc(C(C)(C)C)c3c(c2)C2(CCO3)CC2)n1CC1CCCCC1 [17/34] | 7.0 | 6.9 | 1580 nM |  |  | 
22 | Cc1c(C(=O)NC2CCOCC2)cc(-c2ccc(S(=O)(=O)NCC3(C)COC3)c(C(F)(F)F)c2)n1CC1CCCCC1 [17/147] | 6.7 | 6.7 | 794 nM |  |  | 
23 | Cc1c(C(=O)NC2CC(=O)C2)cc(-c2cc(C(C)(C)C)c3c(c2)C2(CCO3)CC2)n1CC1CCCCC1 [17/21] |  |  |  | 6.2/7.0/6.9 | 6.2/7.0/6.9 | 631 nM
24 | Cc1c(C(=O)NCCN2CCOCC2)cc(-c2cc(C(C)(C)C)cc(C(C)(C)C)c2)n1CC1CCCCC1 [1/70] |  |  |  | 6.2/6.6/6.6 | 6.2/6.6/6.6 | 631 nM
25 | Cc1c(C(=O)NC2CCOCC2)cc(-c2ccc(S(=O)(=O)NC(C)(C)C)c(C(F)(F)F)c2)n1CC1(C)CCCC1 [17/176] | 7.1 | 7.0 | 251 nM |  |  | 
26 | Cc1c(C(=O)NC2CCOCC2)cc(-c2ccc(S(=O)(=O)NC(C)(C)CC(F)(F)F)c(C(F)(F)F)c2)n1CC1CCCCC1 [17/143] | 8.2 | 8.2 | 126 nM |  |  | 
27 | CC(=O)c1cc(-c2cc(C(=O)NC3CCOCC3)c(C)n2CC2CCCCC2)cc(C(C)(C)C)c1 [17/103] |  |  |  | 6.1/6.7/6.8 | 6.1/6.7/6.8 | 794 nM
28 | Cc1c(C(=O)NCc2nc(C(N)=O)co2)cc(-c2cc(C(C)(C)C)c3c(c2)C2(CCO3)CC2)n1CC1CCCCC1 [17/17] |  |  |  | 6.1/6.3/6.4 | 6.1/6.3/6.4 | 794 nM
29 | Cc1c(C(=O)NCC(C)(C)O)cc(-c2cc(OC(F)(F)F)cc(C3(C)CC3)c2)n1CC1CCCCC1 [17/348] | 6.9 | 7.0 | 316 nM |  |  | 
30 | Cc1c(C(=O)NC2C[S+]([O-])C2)cc(-c2cc(C(C)(C)C)c3c(c2)C2(CCO3)CC2)n1CC1CCCCC1 (stereo not drawn) [17/25] |  |  |  | 6.5/6.9/7.0 | 6.5/6.9/7.0 | 316 nM
31 | CC(C)(C)NS(=O)(=O)c1ccc(-c2cc(C(=O)NCCC(C)(C)C(=O)O)c(F)n2CC2CCCCC2)cc1C(F)(F)F [20/6] | 6.9 | 6.9 | 501 nM |  |  | 
32 | Cc1c(C(=O)N2CC3(COCC(=O)N3)C2)cc(-c2ccc(S(=O)(=O)NC(C)(C)C)c(C(F)(F)F)c2)n1CC1CCCCC1 [17/293] | 6.6 | 6.7 | 1260 nM |  |  | 
33 | Cc1c(C(=O)NC2CCOCC2)cc(-c2ccc(S(=O)(=O)NC(C)(C)C)c(C(F)F)c2)n1CC1CCC1 [17/126] | 6.7 | 6.9 | 316 nM |  |  | 
34 | Cc1c(C(=O)NC2CCOCC2)cc(-c2ccc(S(=O)(=O)NC3(C)CC3)c(C(C)(C)C)c2)n1CC1CCCCC1 [17/227] |  |  |  | 6.3/8.1/8.1 | 6.3/8.1/8.1 | 501 nM
35 | Cc1c(C(=O)NC2COC2)cc(-c2cc(C(C)(C)C)c3c(c2)C(C)(C)CC(=O)N3)n1CC1CCCCC1 [1/18] | 7.1 | 7.0 | 631 nM |  |  | 
36 | Cc1c(C(=O)NC2CC23CCOCC3)cc(-c2ccc(S(=O)(=O)NC(C)(C)C)c(C(F)(F)F)c2)n1CC1CCCCC1 (stereo not drawn) [17/210] | 7.9 | 8.1 | 158 nM |  |  | 
37 | Cc1c(C(=O)NC2CCOCC2)cc(-c2ccc(S(=O)(=O)NC(C)(C)CCF)c(C(F)(F)F)c2)n1CC1CCCCC1 [18/2] | 8.0 | 8.2 | 251 nM |  |  | 
38 | Cc1c(C(=O)NC2CCS(=O)(=O)CC2)cc(-c2cc(C(C)(C)O)cc(C3(C)CC3)c2)n1CC1CCCCC1 [17/321] | 7.3 | 7.3 | 1000 nM |  |  | 
39 | Cc1c(C(=O)NC2COC2)cc(C2=NN(C(=O)C3CCCCC3)C3(CCCCC3)C2)n1CC1CCCCC1 [24/2] | < 4.7 | < 4.7 | 6310 nM |  |  | 
40 | Cc1cc(C(C)(C)C)cc(-c2cc(C(=O)N[C@H]3C[C@H](C(=O)O)C3)c(C)n2CC2CCCCC2)c1OC(F)F [17/194] | 6.4 | 6.5 | 12600 nM |  |  | 
